The text below walks through data of paper PMC10726347, “Discovery of Inhibitory Fragments That Selectively Target Spire2–FMN2 Interaction” (Journal of Medicinal Chemistry, 2023).

Experiment [1] deals with T1, KIND1 (Homo sapiens, UniProt Q08AE8).
T1 construct: His6 (N, cleaved yes); made in house; host or cells: E. coli BL21 (DE3)
Kind of experiment: FP competition assay with FITC-labeled FSI peptide, KIND1. Format: binding. Particulars: 2.44-2500 μM, 1.17 μM KIND1. As for the experimental part:
(§1) The probe was diluted in the buffer assay (25 mM Tris, pH 7.8, 100 mM NaCl, 2 mM DTT) and added to the preplated mixtures of protein/fragment solutions. […] Each experiment was performed in triplicate with four technical replications.
(§2) Establishment of fluorescence polarization assay
(§3) The establishment of the fluorescence polarization assay was done according to protocols […]
(§4) In the first step, the affinity of the fluorescently labelled reporter peptide (FSI-peptide, FITC- […]
(§5) concentrations of KIND1 or KIND2 domains. This yielded dose-response curves that allow us to calculate the Kd of FSI-peptide.
(§6) In the next step, the working concentration of the proteins was calculated. Typically, the concentration should be in a dynamic range (0.5-0.8). For calculations, the following equation f0 = (P − Pmin)/(Pmax − Pmin)
(§7) P – fluorescence polarization in the dynamic range (0.5 -0.8) , Pmin – average minimal fluorescence polarization, Pmax – average maximal fluorescence polarization,
(§8) Taking into account Kd values for the reporter peptide, the working concentration of the proteins were calculated as follows:
(§9) c = Kd(P − Pmin)/(Pmax − P) […]

The target in experiment [2] is T2, KIND2 (Homo sapiens, UniProt Q8WWL2).
T2 sequence (Q8WWL2 18-207): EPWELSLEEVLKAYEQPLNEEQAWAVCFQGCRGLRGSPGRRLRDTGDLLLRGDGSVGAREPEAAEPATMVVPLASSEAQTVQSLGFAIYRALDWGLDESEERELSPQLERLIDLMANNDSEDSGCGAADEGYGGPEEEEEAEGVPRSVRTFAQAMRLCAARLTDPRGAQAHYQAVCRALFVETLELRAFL
Kind of experiment: FP competition assay with FITC-labeled FSI peptide, KIND2. It is filed as binding. Further details: His6 (N, cleaved yes); made in house; host or cells: E. coli BL21 (DE3). As to conditions: for IC50: FP competition; for KIND2/FSI inhibitory activity in words: FP assay. Here is the method: as §1, §2, §3, §4, §5, §6, §7, §8, §9

The target in experiment [3] is T2, KIND2. Kind of experiment: Differential scanning fluorimetry (DSF) thermal shift, KIND2. (In general: Differential scanning fluorimetry follows unfolding on heating by fluorescence.)
Protocol: Fragments were screened as singletons at a final concentration of 1 mM (2% DMSO). […] As hit criteria, we arbitrarily set values of positive and negative thermal shift for +0.8 and −2.0 °C, respectively.
Thermal melting experiments were carried out using a CFX96TM real-time PCR machine (BioRad). Protein thermal unfolding was monitored by the increase in the fluorescence of the SYPRO Orange dye (Sigma-Aldrich). […] The KIND1 or KIND2 were prepared in the storage buffer as 50 μM stock solutions. Ten μL of protein was then mixed with 2 μL of SYPRO Orange 45× and 10 μL of the 4 mM solution of tested compounds or 10 μL of the 8% DMSO solution in the protein storage buffer. The resulting mixture was finally buffered with 18 μL of protein storage buffer. […] Raw data files with temperatures and their corresponding fluorescence values (or first derivative of the fluorescence – dF/dT) were exported to Microsoft Office Excel, where melting temperatures Tm were calculated from the lowest point of the first derivative plot. The visualization of melting curves was performed with GraphPad Prism software. Thermal shift values (ΔTm) were obtained through subtraction of the unfolding temperature of the KIND1 or KIND2 in the presence of 2% (vol/vol) DMSO (TmDMSO) from the unfolding temperatures of the KIND1 or KIND2 in the presence of fragment (Tmfrag) [drawing 2]
The target in experiment [4] is T1, KIND1. In words: Differential scanning fluorimetry (DSF) thermal shift, KIND1. Format: binding. Particulars: 1 mM fragment, 2% DMSO.
Experiment [5] addresses T1, KIND1. In words: Binding to KIND1 (method not given).
The mark [6] stands for this setting: 2.44-2500 μM, 2.49 μM KIND2, read-out: KIND2 IC50.

For orientation: IC50 means the concentration that gives 50% inhibition. For orientation: ΔTm means the change in melting temperature against a reference sample.

Like-named read-outs stand apart in the source and are kept apart here. Where only a bound is given, the exact number is not on record here.

T1 sequence (Q08AE8 36-236): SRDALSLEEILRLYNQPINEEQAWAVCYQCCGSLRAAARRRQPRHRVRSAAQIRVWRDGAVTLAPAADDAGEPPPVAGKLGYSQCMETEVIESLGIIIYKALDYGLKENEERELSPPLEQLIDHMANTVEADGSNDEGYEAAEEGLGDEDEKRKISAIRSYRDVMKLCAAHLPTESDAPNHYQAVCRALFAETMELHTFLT

In the case of `N[C@H]1CCCN(c2ccnc3cc(Cl)ccc23)C1` [compound 5, (3S)-1-(7-Chloroquinolin-4-yl)piperidin-3-amine], the IC50 in experiment [1] and in experiment [2] (setting [6]) was greater than 2500 µM throughout.

As for `N[C@H]1CCN(c2ccnc3cc(Cl)ccc23)C1` [compound 3, (S)-1-(7-Chloroquinolin-4-yl)pyrrolidin-3-amine], the IC50 in experiment [1] and in experiment [2] (setting [6]) was greater than 2500 µM throughout.

Turning to `OCCNc1ccnc2cc(Cl)ccc12` [compound 1, 2-((7-Chloroquinolin-4-yl)amino)ethan-1-ol], the IC50 in experiment [1] and in experiment [2] (setting [6]) was greater than 2500 µM in each case.

For the molecule `Cc1ccc2c(NCCN)ccnc2c1` [compound 10, N^1-(7-Methylquinolin-4-yl)ethane-1,2-diamine], the ΔTm at 1000 µM in experiment [3] (read-out: ΔTm) was found to be 2 °C. For the same molecule, in experiment [2] (Table 2, KIND2, read-out: IC50), the IC50 was greater than 2500 µM.

With `NCCNc1ccnc2cc(OCc3ccccc3)ccc12` [compound 16, N^1-[7-(Benzyloxy)quinolin-4-yl]ethane-1,2-diamine], the ΔTm at 1000 µM in experiment [3] (read-out: ΔTm) was determined as 0 °C. Further, the half-inhibitory concentration (IC50) in experiment [2] (Table 2, KIND2, read-out: IC50) is greater than 2500 µM.

With `N[C@@H]1CCCN(c2ccnc3cc(Cl)ccc23)C1` [compound 6, (3R)-1-(7-Chloroquinolin-4-yl)piperidin-3-amine], the IC50 in experiment [1] and in experiment [2] (setting [6]) was greater than 2500 µM each time.

On to `Clc1ccc2c(NCCCN3CCOCC3)ccnc2c1` [F669], for which the results for the ΔTm at 1000 µM in experiment [4] and in experiment [3] (read-out: KIND2 ΔTm) were -0.5 °C and -1 °C, respectively. Moreover, the IC50 in experiment [1] and in experiment [2] (setting [6]) was greater than 2500 µM in each case. The “KIND2/FSI inhibitory activity in words” value in experiment [2] is “complete drop in potency”.

`NCCNc1ccnc2cc(Oc3ccccc3)ccc12` [compound 15, N^1-(7-Phenoxyquinolin-4-yl)ethane-1,2-diamine]: the ΔTm at 1000 µM in experiment [3] (read-out: ΔTm) is -0.1 °C. In addition, in experiment [2] (Table 2, KIND2, read-out: IC50), the IC50 was greater than 2500 µM.

In the case of `Clc1ccc2c(N[C@H]3CCCNC3)ccnc2c1` [compound 7, (S)-7-Chloro-N-(piperidin-3-yl)quinolin-4-amine], the IC50 in experiment [1] and in experiment [2] (setting [6]) was greater than 2500 µM each time.

As for `N[C@@H]1CCN(c2ccnc3cc(Cl)ccc23)C1` [compound 4, (R)-1-(7-Chloroquinolin-4-yl)pyrrolidin-3-amine], the IC50 in experiment [1] and in experiment [2] (setting [6]) was greater than 2500 µM in each case.

With `Clc1ccc2c(N3CCNCC3)ccnc2c1` [F671], the figures for the ΔTm at 1000 µM in experiment [4] and in experiment [3] (read-out: KIND2 ΔTm) were -1 °C and -2 °C, respectively. The IC50 in experiment [1] and in experiment [2] (setting [6]) was greater than 2500 µM in each case. For the same molecule, the “KIND2/FSI inhibitory activity in words” value in experiment [2] is listed as “complete drop in potency”.

Take `NCCCNc1ccnc2cc(Cl)ccc12` [F409]: the IC50 in experiment [1] is greater than 2500 µM.

Regarding `Clc1ccc2c(N[C@@H]3CCCNC3)ccnc2c1` [compound 8, (R)-7-Chloro-N-(piperidin-3-yl)quinolin-4-amine], the IC50 in experiment [1] and in experiment [2] (setting [6]) was greater than 2500 µM in each case.

As for `NCCNc1ccnc2cc(C(F)(F)F)ccc12` [compound 9, N^1-(7-(Trifluoromethyl)quinolin-4-yl)ethane-1,2-diamine], in experiment [3] (read-out: ΔTm), the ΔTm at 1000 µM was -0.4 °C. For the same molecule, in experiment [2] (Table 2, KIND2, read-out: IC50), the IC50 was greater than 2500 µM.

Turning to `CN(C)CCCNc1ccnc2cc(Cl)ccc12` [F666], in experiment [1], the IC50 is greater than 2500 µM.

As to `NCCNc1ccnc2c(F)cccc12` [compound 18, N^1-(8-Fluoroquinolin-4-yl)ethane-1,2-diamine], in experiment [3] (read-out: ΔTm), the ΔTm at 1000 µM came out at 0.8 °C. For the same molecule, in experiment [2], the “KIND2/FSI inhibitory activity in words” value was “complete loss of activity”. Moreover, the IC50 in experiment [2] (Table 2, KIND2, read-out: IC50) was greater than 2500 µM.

With `CN(C)CCNc1ccnc2cc(Cl)ccc12` [compound 2, N^1-(7-Chloroquinolin-4-yl)-N^2,N^2-dimethylethane-1,2-diamine], the IC50 in experiment [1] and in experiment [2] (setting [6]) was greater than 2500 µM each time. The “KIND2/FSI inhibitory activity in words” value in experiment [2] was “loss of potency”.

With `NCCNc1ccnc2c(Cl)cccc12` [compound 17, N^1-(8-Chloroquinolin-4-yl)ethane-1,2-diamine], the shift in melting temperature (ΔTm) at 1000 µM in experiment [3] (read-out: ΔTm) came to 0.8 °C. Also, the “KIND2/FSI inhibitory activity in words” value in experiment [2] was “complete loss of activity”. Also, the concentration for half-maximal inhibition (IC50) in experiment [2] (Table 2, KIND2, read-out: IC50) was greater than 2500 µM.

Turning to `Nc1ccnc2cc(Cl)ccc12` [F668], the ΔTm at 1000 µM in experiment [4] was -0.4 °C; in experiment [3] (read-out: KIND2 ΔTm), -1 °C. Moreover, the IC50 in experiment [1] and in experiment [2] (setting [6]) was greater than 2500 µM each time.

With `NCCNc1ccnc2cc(Br)ccc12` [compound 11, N^1-(7-Bromoquinolin-4-yl)ethane-1,2-diamine], the ΔTm at 1000 µM in experiment [3] (read-out: ΔTm) was 1.2 °C. The IC50 in experiment [2] (Table 2, KIND2, read-out: IC50) is greater than 2500 µM.

In the case of `NCCNc1ccnc2cc(Cl)ccc12` [F408, N^1-(7-Chloroquinolin-4-yl)ethane-1,2-diamine], the IC50 in experiment [1] is greater than 2500 µM. The “binding to KIND1” value in experiment [5] is “did not bind”.

In the case of `OCCCNc1ccnc2cc(Cl)ccc12` [F410], the results for the ΔTm at 1000 µM in experiment [4] and in experiment [3] (read-out: KIND2 ΔTm) were -0.4 °C and -0.5 °C, respectively. Moreover, the IC50 in experiment [1] and in experiment [2] (setting [6]) was greater than 2500 µM throughout. In experiment [2], the “KIND2/FSI inhibitory activity in words” value is listed as “complete loss in activity”.

In experiment [1], `NCCCCNc1ccnc2cc(Cl)ccc12` [F667] returned a half-maximal inhibitory concentration (IC50) greater than 2500 µM.
